In the METLIN SMRT retention time set (Domingo-Almenara et al. 2019):

Experiment: gradient 5% acetonitrile 3 min, to 50% in 2 min, to 85% in 15 min, held 3 min, 100 µL/min
Conditions: column: Zorbax Extend-C18 2.1 x 50 mm; eluents: water / acetonitrile, 0.1% formic acid
How it was run: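 Retention time was recorded from adduct peaks, which were picked computationally and each inspected manually. Pure standards ran in mixtures of ~100 molecules on HPLC coupled to a quadrupole time-of-flight mass spectrometer, in positive and negative ionization mode, through a Zorbax Extend-C18 column (2.1 × 50 mm, 1.8 μm) at 100 μL/min. Eluents were water and acetonitrile, each with 0.1% formic acid.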

| Structure (SMILES) | RP-LC retention time [s] |
| --- | --- |
| Clc1ccccc1CSc1nnc(-c2ccc(Br)cc2)o1 | 1400 |
| CCOc1ccccc1NC(=O)Cn1ncc2c(N3CCN(c4ccccn4)CC3)ncnc21 | 628 |
| O=C(CCn1cnc2cc(S(=O)(=O)N3CCCC3)ccc21)N1CCN(c2ccccn2)CC1 | 576 |
| CCOc1cccc(-c2noc(Cn3c(=O)n(-c4ccccc4C)c(=O)c4sccc43)n2)c1 | 1070 |
| CCOc1ccc(C2Cn3nnc(-c4nc(C5CCCCC5)no4)c3CO2)cc1 (configuration not stated) | 1290 |
| CCOCCCNC(=O)c1c(OCC)cc(=O)n2c1CCCCC2 | 621 |
| Cc1ccc(-c2nnc(-c3ccccc3)o2)cc1S(=O)(=O)N(C)C | 950 |
| Fc1ccc(-c2ccnc3nc(-c4ccccc4)nn23)cc1 | 949 |
| O=C(c1ccc(=O)[nH]c1)N1CC(c2nc(-c3ccccn3)no2)C1 | 666 |
| CCOc1ccc(-c2nc(C3CC(=O)N(c4ccc(F)cc4)C3)no2)cc1OCC (configuration not stated) | 1050 |
| CCOc1ccc(C2Cn3nnc(-c4nc(-c5ccccc5OCC)no4)c3CO2)cc1 (configuration not stated) | 1200 |
| Cc1c(S(=O)(=O)N2CCN(c3ccccn3)CC2)cc(-c2nc(-c3ccccc3)cs2)n1C | 885 |
| O=C(CCC[C@@H]1[C@H]2CCCN3CCC[C@@H](CN1C(=O)c1cccnc1)[C@@H]23)N1CCN(c2ncccn2)CC1 | 578 |
| O=[N+]([O-])c1ccc(/C=C\c2ccncc2)cc1 | 685 |
| Cc1nn(-c2ccccc2)c2c1N(CCCC(=O)NC1CC1)C(=O)CS2 | 780 |
| CCOc1ccc(-c2csc(Cc3nc(-c4ccc(OCC)cc4)no3)n2)cc1 | 1300 |
| CC1CCc2c(sc3nc(CCC(=O)N4CCC(C(N)=O)CC4)[nH]c(=O)c23)C1 (configuration not stated) | 697 |
| O=C(NC1CC1)C1CCN(c2nnc(-c3ccccc3)o2)CC1 | 657 |
| O=c1c(O[C@@H]2O[C@H](CO)[C@H](O)[C@H](O)[C@H]2O)c(-c2ccc(O)c(O)c2)oc2cc(O)cc(O)c12 | 656 |
| CCCn1c2ccccc2c2nnc(SC(CC)C(=O)Nc3nc(-c4ccccc4)cs3)nc21 (configuration not stated) | 1230 |
| O=C(NC1(c2nc(-c3cccnc3)no2)CCCCC1)c1ccc(F)c(Cl)c1 | 1030 |

| Structure (SMILES) | RP-LC retention time [s] |
| --- | --- |
| Cc1ccc2nc(-c3ccc(N(C)C)cc3)c(Nc3ccccc3C)n2c1 | 812 |
| Cc1ccc(C2CC(=O)c3cnc(Nc4nc(C)c5cc(C)c(C)cc5n4)nc3C2)cc1 (configuration not stated) | 862 |
| CCOc1ccc(-c2[nH]ncc2CN)cc1 | 575 |
| CCOC(=O)C1CCc2sc(NC(=O)c3cc(-c4cccs4)[nH]n3)nc21 (configuration not stated) | 835 |
| CSc1ncn(-c2nc(NC(C)C)nc(NC(C)C)n2)n1 | 875 |
| Cc1cnc(C2CN(S(=O)(=O)c3cccc(F)c3)C2)n1CC1CC1 | 656 |
| N#Cc1cc2c(nc1SCC(=O)N1CCOCC1)CCCCC2 | 891 |
| CCn1cc(S(=O)(=O)Nc2cc(OC)cc(OC)c2)c2cccnc21 | 817 |
| CCOC(=O)c1nnc2c(-c3ccccc3)cnn2c1C | 961 |
| Clc1ccccc1N1CCN(c2cc(-c3nc(-c4ccccc4)no3)c3ccccc3n2)CC1 | 1130 |
| CCCCN1CCN(Cc2nc(-c3ccc(N4CCC(C)CC4)nc3)no2)CC1 | 644 |
| CCn1ccc2c(cc(C(=O)Nc3cc(F)ccc3F)n2C)c1=O | 754 |
| O=C(Cn1cnc2c(sc3nc(-c4ccccc4)ccc32)c1=O)Nc1ccccc1 | 986 |
| Nc1nc(N)nc(C2C=CCCC2)n1 (configuration not stated) | 620 |
| COc1ccc(C2Cn3cnc(-c4nc(-c5ccc6c(c5)OCO6)no4)c3CO2)cc1 (configuration not stated) | 1000 |
| COc1ccc(-c2[nH]ncc2CN2CC(F)(F)C[C@H]2CN2CCOCC2)cc1OC | 594 |
| COc1ccc(-n2c(C)nc3ccc(NC(=O)C4CC4)cc3c2=O)cc1 | 683 |
| CCn1cc(CCNS(=O)(=O)CC)c2cccnc21 | 630 |
| Cc1ccc(Cl)c(NS(=O)(=O)c2cc(-c3[nH]ncc3C(=O)N(C)C)oc2C)c1 | 717 |
| O=S(=O)(c1ccccc1)N1CCOc2ccccc21 | 974 |
| CCCCN(CCCC)c1nc(-c2ccccc2)nc2ccccc12 | 976 |

Continued, values first:

| RP-LC retention time [s] | Structure (SMILES) |
| --- | --- |
| 833 | CC(C)Oc1ccc(CNC(=O)CCCN2C(=O)CCn3nc(-c4cccn4C)cc32)cc1 |
| 700 | Cc1nnc2c(=O)n(CC(=O)NCc3cccc(Cl)c3)c3cccnc3n12 |
| 898 | Cc1ccc(N2CCC(NC(=O)Nc3ccccc3C(F)(F)F)C2=O)cc1 (configuration not stated) |
| 902 | CCn1cc(C(=O)Nc2cccc(C)c2)c(S(=O)(=O)N2CCSCC2)n1 |
| 832 | CC(C)N1C(=O)c2cccnc2Sc2cc(NC(=O)c3ccsc3)ccc21 |
| 1020 | Cc1ccc2c(c1)N(S(C)(=O)=O)CCC(C(=O)Nc1ccc(Cl)cc1)O2 (configuration not stated) |
| 802 | O=C([C@@H]1C[C@H](Oc2ccccc2)CN1C(=O)c1n[nH]c2ccccc12)N1CCCC1 |
| 754 | O=C(NCc1ccccc1C(F)(F)F)C1CCCN(c2ncnc3nn(-c4ccc(F)cc4)cc23)C1 (configuration not stated) |
| 938 | COc1ccc(NC(=O)Cn2c(=O)cc(-c3nc(C(C)C)no3)c3ccccc32)cc1 |
| 768 | CN1c2c(Cl)cccc2C(=O)NC12CCN(C(=O)c1ccccc1)CC2 |
| 604 | CC(C)N1CCN(Cc2ccc(C(=O)NC3CC3)cc2)C(=O)C1=O |
| 629 | COc1ccc(CNC(=O)Cn2c(N3CCOCC3)nc(C)cc2=O)cc1 |
| 834 | COC(=O)CNC(=O)NC(Cc1ccc(F)cc1)Cc1ccc2c(c1)OCO2 (configuration not stated) |
| 1050 | O=C(Nc1ccc(Br)cc1)N1CCCC1c1nc(-c2ccc(F)cc2F)no1 (configuration not stated) |
| 949 | O=C(Nc1nc2c(s1)CCCC2C(=O)N1CCc2ccccc21)c1ccc2c(c1)OCO2 (configuration not stated) |
| 810 | Cc1cccc(CN2CCCn3nc(C(=O)NCc4ccco4)cc3C2=O)c1 |
| 636 | Cc1ccn2cc(-c3ccc(NC(=O)c4cccs4)cc3)nc2n1 |
| 764 | CCS(=O)(=O)c1ccc(-c2ccc(NC(=O)Cc3ccc(F)cc3)cc2)nn1 |
| 1030 | CCn1nc(C)c2c(-c3ccccc3)cc(OC(C)C(=O)Nc3ccc(C(C)=O)cc3)nc21 (configuration not stated) |
| 1180 | O=C(NC1(c2nc(-c3ccccc3)no2)CCCCC1)c1cccc(F)c1 |
| 957 | CCn1c(=O)sc2cc(S(=O)(=O)N3CCC(C(=O)NC4CCCc5ccccc54)CC3)ccc21 (configuration not stated) |
| 938 | Cc1c(Cl)cccc1S(=O)(=O)NCC(O)c1ccc(C(F)(F)F)cc1 (configuration not stated) |
| 748 | Cc1ccn2cc(-c3ccc(NS(=O)(=O)c4ccc5cccc6c5c4CC6)cc3)nc2n1 |

| RP-LC retention time [s] | Structure (SMILES) |
| --- | --- |
| 614 | O=C(Nc1cccc(Br)c1)N1CCc2nc[nH]c2C1 |
| 737 | O=C(NCCC1CCN(C(=O)Nc2cc(F)ccc2F)CC1)c1ccsc1 |
| 1250 | Cc1ccc(CNC(=O)c2cc(C(C)C)n3nccc3n2)cc1 |
| 1000 | O=C(Nc1ccc(Cl)cc1)c1cccn1Cc1noc(C2CC2)n1 |
| 915 | O=C(Cn1ccc2ccc(N3CCOCC3)nc21)NCc1ccc(Br)cc1 |
| 830 | Cc1cccc(NC(=O)C2CCCN(c3nc4ccccc4nc3C(F)(F)F)C2)c1C (configuration not stated) |
| 801 | COc1ccc(Cl)cc1NC(=O)c1c(OC)cc(=O)n2c1CCCC2 |
| 1070 | Cc1ccc(CNC(=O)C2(C)CCCN(C(=O)Nc3cccc(Br)c3)C2)cc1 (configuration not stated) |
| 688 | O=C(c1ccc(-c2cccnc2)nc1)N1CCN(c2ccccc2F)CC1 |
| 1110 | Cc1cccc(-c2nc(C3CCN(S(=O)(=O)c4ccc(F)cc4)CC3)no2)c1 |
| 851 | COc1ccc2[nH]cc(CCNC(=O)C3CCN(S(=O)(=O)c4ccc5c(ccn5C)c4)CC3)c2c1 |
| 839 | Cc1nn(-c2ccccc2)c2c1N(CC(=O)N1CCN(c3ccccc3)CC1)C(=O)CS2 |
| 678 | Cc1cc2[nH]c(C(=O)Nc3cc(F)ccc3C)c(CN3CCOCC3)c2s1 |
| 1000 | O=C(c1ccc(Br)cc1)N1CCc2nc(-c3ccccc3)ncc2C1 |
| 914 | Cc1ccc(NC(=O)C2CC(=O)N(c3cccc(NC(=O)C4CCC4)c3)C2)cc1Cl (configuration not stated) |
| 957 | CCc1nc2c(NC(=O)Nc3ccc4c(c3)CCC4)cccn2n1 |
| 831 | O=C(Cn1c(=O)cc(C(=O)N2CCc3ccccc3C2)c2ccccc21)Nc1ccc2c(c1)OCCO2 |
| 866 | COc1cc(NC(=O)Cn2c(=O)n(-c3ccc(C)cc3)c(=O)c3c2cc(C)n3C)cc(OC)c1 |
| 1040 | Cc1ccc(N2CCN(c3nccn4c(=O)n(CC(=O)Nc5ccc(F)c(Cl)c5)nc34)CC2)cc1 |
| 757 | CCOc1ccc(NC(=O)c2cc3c(=O)n(CC)ccc3n2C)cc1 |
| 963 | COc1ccc(-c2noc(C3CCCN3C(=O)Nc3ccc(F)cc3F)n2)cc1 (configuration not stated) |
| 899 | O=C(COc1ccccc1)Nc1ccc2c(c1)N(C(=O)c1ccco1)CCC2 |
